From patent US9247741B2, “Use of macrocyclic picolinamides as fungicides” (DOW AGROSCIENCES LLC, priority 2013, dated 2016)
Like-named read-outs stand apart in the source and are kept apart here.

Key:
Assay type in all cases: in vivo
Alternaria solani = experiment: Tomato early blight (ALTESO) disease control; details: 24 h, 1 Day Protectant, read-out: ALTESO disease control rating
Experimental: Technical grades of materials were dissolved in acetone, which were then mixed with nine volumes of water containing 110 ppm Triton X-100. The fungicide solutions were applied onto wheat seedlings using an automated booth sprayer to run-off. All sprayed plants were allowed to air dry prior to further handling. All fungicides were evaluated using the aforementioned method for their activity vs. all target diseases. Wheat leaf blotch and brown rust activity were also evaluated using track spray applications, in which case the fungicides were formulated as EC formulations, containing 0.1% Trycol 5941 in the spray solutions. Wheat plants (variety Yuma) were grown from seed in a greenhouse in 50% mineral soil/50% soil-less Metro mix until the first leaf was fully emerged, with 7-10 seedlings per pot. These plants were inoculated with an aqueous spore suspension of Septoria tritici either prior to or after fungicide treatments. After inoculation the plants were kept in 100% relative humidity (one day in a dark dew chamber followed by two to three days in a lighted dew chamber at 20° C.) to permit spores to germinate and infect the leaf. The plants were then transferred to a greenhouse set at 20° C. for disease to develop. When disease symptoms were fully expressed on the l^st leaves of untreated plants, infection levels were assessed on a scale of 0 to 100 percent disease severity. Percent disease control was calculated using the ratio of disease severity on treated plants relative to untreated plants. Evaluation of Fungicidal Activity: Tomato Early Blight (Alternaria solani; Bayer Code […]) Tomato plants (variety Outdoor girl) were propagated in soil-less Metro mix, with each pot having one plant, and used when 12 to 14 days old. Test plants were inoculated with an aqueous spore suspension of Alternaria solani 24 hr after fungicide treatments. After inoculation the plants were kept in 100% relative humidity (one day in a dark dew chamber followed by two to three days in a lighted dew chamber at 20° C.) to permit spores to germinate and infect the leaf. The plants were then transferred to a growth room at 22° C. for disease to develop. Fungicide formulation, application and disease assessment on the sprayed leaves followed the procedures as described in the Example A.

Puccinia triticina = experiment: Wheat brown rust (PUCCRT) disease control on wheat seedlings; details: for pest or weed control at 121.5 g/ha: 121.5 g/H (low volume track spray); for pest or weed control at 100 ppm: 100 ppm (high volume)
Experimental: Technical grades of materials were dissolved in acetone, which were then mixed with nine volumes of water containing 110 ppm Triton X-100. The fungicide solutions were applied onto wheat seedlings using an automated booth sprayer to run-off. All sprayed plants were allowed to air dry prior to further handling. All fungicides were evaluated using the aforementioned method for their activity vs. all target diseases. Wheat leaf blotch and brown rust activity were also evaluated using track spray applications, in which case the fungicides were formulated as EC formulations, containing 0.1% Trycol 5941 in the spray solutions. Wheat plants (variety Yuma) were grown from seed in a greenhouse in 50% mineral soil/50% soil-less Metro mix until the first leaf was fully emerged, with 7-10 seedlings per pot. These plants were inoculated with an aqueous spore suspension of Septoria tritici either prior to or after fungicide treatments. After inoculation the plants were kept in 100% relative humidity (one day in a dark dew chamber followed by two to three days in a lighted dew chamber at 20° C.) to permit spores to germinate and infect the leaf. The plants were then transferred to a greenhouse set at 20° C. for disease to develop. When disease symptoms were fully expressed on the l^st leaves of untreated plants, infection levels were assessed on a scale of 0 to 100 percent disease severity. Percent disease control was calculated using the ratio of disease severity on treated plants relative to untreated plants. Evaluation of Fungicidal Activity: Wheat Brown Rust (Puccinia triticina; Synonym: Puccinia recondite f sp. tritici; Bayer code PUCCRT) Wheat plants (variety Yuma) were grown from seed in a greenhouse in 50% mineral soil/50% soil-less Metro mix until the first leaf was fully emerged, with 7-10 seedlings per pot. These plants were inoculated with an aqueous spore suspension of Puccinia triticina either prior to or after fungicide treatments. After inoculation the plants were kept in a dark dew room at 22° C. with 100% relative humidity overnight to permit spores to germinate and infect the leaf. The plants were then transferred to a greenhouse set at 24° C. for disease to develop. Fungicide formulation, application and disease assessment followed the procedures as described in the Example A.

Cercospora beticola = experiment: Leaf spot of sugar beets (CERCBE) disease control; details: 24 h, 1 Day Protectant, sugar beet, read-out: CERCBE disease control rating
Experimental: Technical grades of materials were dissolved in acetone, which were then mixed with nine volumes of water containing 110 ppm Triton X-100. The fungicide solutions were applied onto wheat seedlings using an automated booth sprayer to run-off. All sprayed plants were allowed to air dry prior to further handling. All fungicides were evaluated using the aforementioned method for their activity vs. all target diseases. Wheat leaf blotch and brown rust activity were also evaluated using track spray applications, in which case the fungicides were formulated as EC formulations, containing 0.1% Trycol 5941 in the spray solutions. Wheat plants (variety Yuma) were grown from seed in a greenhouse in 50% mineral soil/50% soil-less Metro mix until the first leaf was fully emerged, with 7-10 seedlings per pot. These plants were inoculated with an aqueous spore suspension of Septoria tritici either prior to or after fungicide treatments. After inoculation the plants were kept in 100% relative humidity (one day in a dark dew chamber followed by two to three days in a lighted dew chamber at 20° C.) to permit spores to germinate and infect the leaf. The plants were then transferred to a greenhouse set at 20° C. for disease to develop. When disease symptoms were fully expressed on the l^st leaves of untreated plants, infection levels were assessed on a scale of 0 to 100 percent disease severity. Percent disease control was calculated using the ratio of disease severity on treated plants relative to untreated plants. Evaluation of Fungicidal Activity: Leaf Spot of Sugar Beets (Cercospora beticola; Bayer Code CERCBE) Sugar beet plants (variety HH88) were grown in soil-less Metro mix and trimmed regularly to maintain a uniform plant size prior to test. Plants were inoculated with a spore suspension 24 hr after fungicide treatments. Inoculated plants were kept in a dew chamber at 22° C. for 48 hr then incubated in a greenhouse set at 24° C. under a clear plastic hood with bottom ventilation until disease symptoms were fully expressed. Fungicide formulation, application and disease assessment on the sprayed leaves followed the procedures as described in the Example A.

[1] = 24 h, 1 Day Protectant, read-out: PUCCRT 1DP disease control rating
[2] = 72 h, 3 Day Curative, read-out: PUCCRT 3DC disease control rating

Structure (SMILES) | pest or weed control at 100 ppm (Alternaria solani) | pest or weed control at 121.5 g/ha (Puccinia triticina; [1]) | pest or weed control at 121.5 g/ha (Puccinia triticina; [2]) | pest or weed control at 100 ppm (Cercospora beticola) | pest or weed control at 100 ppm (Puccinia triticina; [1]) | pest or weed control at 100 ppm (Puccinia triticina; [2])
CCCO[C@H]1CCC[C@H](NC(=O)c2nccc(OC)c2OCOC(C)=O)C(=O)O[C@@H](C)[C@@H]1CCC(C)C [Compound 25, ((2-(((3S,7S,8S,9S)-8-isopentyl-9-methyl-2-oxo-7-propoxyoxonan-3-yl)carbamoyl)-4-methoxypyridin-3-yl)oxy)methyl acetate] | > 70% | > 70% | > 70% | > 70% |  | 
CCCO[C@H]1CCC[C@H](NC(=O)c2nccc(OC)c2OC(C)=O)C(=O)O[C@@H](C)[C@@H]1CCC(C)C [Compound 74, 2-(((3S,7S,8S,9S)-8-isopentyl-9-methyl-2-oxo-7-propoxyoxonan-3-yl)carbamoyl)-4-methoxypyridin-3-yl acetate] | > 70% | > 70% | > 70% | > 70% |  | 
CCCC[C@H]1[C@H](C)OC(=O)[C@@H](NC(=O)c2nccc(OC)c2OCOC(C)=O)CCC[C@@H]1OCC1CC1 [Compound 73] | < 70% | > 70% | > 70% | > 70% |  | 
COc1ccnc(C(=O)N[C@H]2CCC[C@H](OCC3CC3)[C@@H](Cc3ccc(F)cc3)[C@H](C)OC2=O)c1OCOC(C)=O [Compound 61] | < 70% | > 70% | > 70% | > 70% |  | 
CCCO[C@H]1CCC[C@H](NC(=O)c2nccc(OC)c2OC(C)=O)C(=O)O[C@@H](C)[C@@H]1Cc1ccccc1 [Compound 70] | > 70% | > 70% | > 70% | > 70% | > 70% | > 70%
COc1ccnc(C(=O)N[C@H]2CCC[C@H](Oc3ccccc3)[C@@H](CCC(C)C)[C@H](C)OC2=O)c1OC(C)=O [Compound 36] | > 70% | > 70% | < 70% | > 70% |  | 
COc1ccnc(C(=O)N[C@H]2CCC[C@H](Oc3ccccc3)[C@@H](CCC(C)C)[C@H](C)OC2=O)c1OCOC(C)=O [Compound 40] | > 70% | > 70% | > 70% | > 70% |  | 
CCCC[C@H]1[C@H](C)OC(=O)[C@@H](NC(=O)c2nccc(OC)c2OCOC(C)=O)CCC[C@@H]1Oc1ccccc1 [Compound 33] | > 70% | > 70% | > 70% | > 70% |  | 
